Source: paper PMC6010053, “The hop-derived compounds xanthohumol, isoxanthohumol and 8-prenylnaringenin are tight-binding inhibitors of human aldo-keto reductases 1B1 and 1B10” (Journal of Enzyme Inhibition and Medicinal Chemistry, 2018)

Assays:
AKR1B10 [1] = system: AKR1B10; parameters: method as in PMID 26844556, PMID 27359042, PMID 28003428, PMID 26968129, PMID 21561086; settings: selective inhibitors identified so far; cited from earlier work
AKR1B1 [2] = system: AKR1B1; parameters: method as in earlier work; settings: glyceraldehyde as substrate; cited from earlier work
AKR1B10 [3] = molecular target: T1, AKR1B10 (Homo sapiens, UniProt O60218); assay: AKR1B10-catalysed farnesal reduction (physiological substrate); format: biochemical; settings: for Ki / IC50: farnesal at KM 5 μM, mean ± SD; for Ki: Morrison equation; for IC50: at least three experiments; for mode of inhibition: with respect to the substrate farnesal, IC50 at five substrate concentrations
T1 construct: 6xHis; made in house; host or cells: E. coli BL21 (DE3)
Procedure: (§1) Catalytic properties were determined by measuring the decrease in absorbance at 340 nm at 37 °C (Cary 100 scan photometer, Varian, Pal Alto, CA, USA). A reaction mixture without inhibitor consisted of different concentrations of substrate (see Table 1 for details), 200 μM NADPH, 0.1 M NaH2PO4 buffer (pH 7.4) and an appropriate amount of enzyme in a total assay volume of 0.8 ml. Final enzyme concentrations in the assay ranged from 583 nM (AKR1B10) to 712 nM (AKR1B1). For inhibitor selectivity studies on AKR1A1, AKR1B1 and AKR1B10 stock solutions of the inhibitors XN, XI and 8-PN were prepared in dimethyl sulfoxide (DMSO). The final concentration of DMSO in the assay was ≤0.5%. Activity measurements were started without pre-incubation by adding an appropriate amount of enzyme. When collecting data for dose–response curves, initial velocities of the glyceraldehyde reduction (concentration at KM; enzyme specific) in the presence of inhibitors were assayed as described above. The percentage of inhibition was calculated considering the activity in the absence of inhibitor to be 100%.
(§2) Initially, the half maximal inhibitory concentrations (IC50 values) were determined for each inhibitor in the presence of each enzyme, using the shared substrate glyceraldehyde (set to their specific Km; 3.6 mM, 50 µM and 4 mM for AKR1A1, AKR1B1 and AKR1B10, respectively) to assess specificity among the structurally similar members of the AKR-superfamily. For IC50 determination, experimental data were normalised and fitted to a sigmoidal curve as implemented in GraphPad6 (GraphPad Software Inc., La Jolla, CA, USA). Whenever tight-binding inhibition was observed, the inhibition constant Ki was determined by fitting inhibition data to the Morrison equation as implemented in GraphPad Prism6 (GraphPad Software Inc., La Jolla, CA, USA)[65], using non-linear regression.
(§3) In order to verify the inhibitory potency, enzyme-specific physiological substrates for AKR1B1 (glucose, KM = 32 mM) and AKR1B10 (farnesal; KM = 5 µM) were used to determine inhibition parameters. Enzyme inhibition parameters were assayed as described above. The inhibition mechanism of each compound for the respective enzymes was analysed by plotting IC50 values at different substrate concentrations (at least five inhibitor and substrate concentrations)[65]^,[66]. All data obtained were plotted and analysed using GraphPad Prism6 (GraphPad Software Inc., La Jolla, CA, USA).

AKR1A1 = molecular target: T2, AKR1A1 (Homo sapiens, UniProt P14550); assay: AKR1A1-catalysed glyceraldehyde reduction (inhibitor selectivity); format: biochemical
T2 construct: 6xHis; made in house; host or cells: E. coli BL21 (DE3)
T2 sequence (P14550 1-325): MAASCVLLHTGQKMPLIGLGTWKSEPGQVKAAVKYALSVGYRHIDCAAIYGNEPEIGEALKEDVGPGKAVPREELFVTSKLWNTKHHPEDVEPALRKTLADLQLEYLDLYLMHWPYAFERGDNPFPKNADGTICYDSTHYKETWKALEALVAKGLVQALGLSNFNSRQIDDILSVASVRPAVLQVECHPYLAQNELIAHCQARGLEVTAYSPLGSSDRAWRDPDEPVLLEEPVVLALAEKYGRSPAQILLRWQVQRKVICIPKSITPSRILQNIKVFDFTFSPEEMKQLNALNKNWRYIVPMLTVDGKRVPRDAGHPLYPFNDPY
Procedure: (§4) The recombinant enzymes AKR1A1, AKR1B1 and AKR1B10 were prepared in an Escherichia coli expression system according to previously published methods: AKR1A1 was a gentle gift from Prof. Dr. Vladimir Wsol[63]; AKR1B1 was a friendly gift from Dr. Nina Kassner; information about production and purification of AKR1B10 has been published before. Genetic information on the specific inserts of all obtained plasmids was verified by sequencing (MWG Eurofins). The plasmids were then transformed into E. coli BL21 (DE3) cells. For over-expression of 6 × His-tagged enzymes, a 400-ml culture (containing the appropriate antibiotic; plasmid dependent) was grown to an optical density of 0.6 at 600 nm at 37 °C. Protein over-expression was induced by adding isopropyl-1-thio-galactopyranoside (IPTG) to the culture medium (final concentration of 1 mM). After 3 h, cells were harvested by centrifugation (6000 g, 15 min) and re-suspended in 20 ml PBS-I buffer (20 mM NaH2PO4, 500 mM NaCl, 10 mM imidazole, pH 7.4). Cell disruption was performed by ultrasonication with cooling on ice, to avoid heating. The sample was subsequently centrifuged at 100,000 g at 4 °C for 1 h. The obtained supernatants, containing the target protein were purified using Ni-affinity chromatography on an ÄKTA-Purifier System (Amersham Pharmacia Biotech, Uppsala, Sweden). Purification progress was monitored by SDS-PAGE of the obtained fractions (not shown). Enzyme concentrations were determined using a Qubit 2.0 fluorometric quantitation system (Life Technologies, Carlsbad, CA, USA) according to the manufacturer’s instructions.
Catalytic properties were determined by measuring the decrease in absorbance at 340 nm at 37 °C (Cary 100 scan photometer, Varian, Pal Alto, CA, USA). A reaction mixture without inhibitor consisted of different concentrations of substrate (see Table 1 for details), 200 μM NADPH, 0.1 M NaH2PO4 buffer (pH 7.4) and an appropriate amount of enzyme in a total assay volume of 0.8 ml. […] The percentage of inhibition was calculated considering the activity in the absence of inhibitor to be 100%. […]

AKR1B10 [4] = molecular target: T1, AKR1B10; assay: AKR1B10-catalysed glyceraldehyde (GA) reduction, NADPH absorbance decrease at 340 nm; format: biochemical; settings: GA at KM 4 mM, mean ± SD; for IC50: 200 μM NADPH, pH 7.4, 37 °C, at least three experiments; for Ki: Morrison equation for tight-binding inhibitors
Procedure: as §4, §1, §2

AKR1B1 [5] = molecular target: T3, AKR1B1 (Homo sapiens, UniProt P15121); assay: AKR1B1-catalysed glucose reduction (physiological substrate); format: biochemical; settings: for Ki / IC50: glucose at KM 32 mM, mean ± SD; for Ki: Morrison equation; for IC50: at least three experiments; for mode of inhibition: with respect to the substrate glucose, IC50 at five substrate concentrations
T3 construct: 6xHis; made in house; host or cells: E. coli BL21 (DE3)
Procedure: as §1, §2, §3

AKR1B1 [6] = molecular target: T3, AKR1B1; assay: AKR1B1-catalysed glyceraldehyde (GA) reduction, NADPH absorbance decrease at 340 nm; format: biochemical; settings: for IC50 / Ki: GA at KM 50 μM, mean ± SD; for IC50: 200 μM NADPH, pH 7.4, 37 °C, at least three experiments; for Ki: Morrison equation for tight-binding inhibitors; for mode of inhibition with respect to the co-factor binding site for NADPH: glyceraldehyde reduction, IC50 as a function of NADPH concentration
Procedure: as §4
as §1, with “A reaction mixture without inhibitor consisted of different concentrations of substrate (see Table 1 for details), 200 μM NADPH, 0.1 M NaH2PO4 buffer (pH 7.4) and an appropriate amount of enzyme in a total assay volume of 0.8 ml.” left out
as §2

T1 sequence (O60218 whole entry): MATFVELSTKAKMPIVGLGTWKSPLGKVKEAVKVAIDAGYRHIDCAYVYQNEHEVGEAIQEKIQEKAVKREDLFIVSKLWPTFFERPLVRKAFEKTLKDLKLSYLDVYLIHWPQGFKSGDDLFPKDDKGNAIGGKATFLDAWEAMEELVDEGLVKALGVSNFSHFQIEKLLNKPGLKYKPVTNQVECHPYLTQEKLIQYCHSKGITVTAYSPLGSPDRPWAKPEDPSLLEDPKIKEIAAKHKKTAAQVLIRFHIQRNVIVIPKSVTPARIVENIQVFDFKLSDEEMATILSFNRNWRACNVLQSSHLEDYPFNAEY

Compound | IC50 (AKR1B10 [1]) | IC50 (AKR1B1 [2]) | Ki (AKR1B10 [3]) | IC50 (AKR1B10 [3]) | mode of inhibition (AKR1B10 [3]) | effect on the activity of AKR1A1 (AKR1A1) | IC50 (AKR1B10 [4]) | Ki (AKR1B10 [4]) | Ki (AKR1B1 [5]) | IC50 (AKR1B1 [5]) | mode of inhibition (AKR1B1 [5]) | IC50 (AKR1B1 [6]) | Ki (AKR1B1 [6]) | mode of inhibition with respect to the co-factor binding site for NADPH (AKR1B1 [6]) | inhibitory potency, times greater as compared to that of 6-PN (AKR1B1 [6]; ratio of AKR1B1 IC50 values, glyceraldehyde as substrate)
C[C@@]12CCC[C@H]1[C@@H]1C[C@@H](O)[C@@]3(O)C[C@@H](O)CC[C@]3(CO)[C@H]1CC2 [Androst-3β,5α,6β,19-tetrol] | 0.86 µM |  |  |  |  |  |  |  |  |  |  |  |  |  | 
CC1(C)CC[C@]2(C(=O)O)CC[C@]3(C)C(=CC[C@@H]4[C@@]5(C)CC[C@H](O)C(C)(C)[C@@H]5CC[C@]43C)[C@@H]2C1 [oleanolic acid] | 0.09 µM |  |  |  |  |  |  |  |  |  |  |  |  |  | 
CC(C)=CCc1c(O)cc2c(c1O)C(=O)C[C@@H](c1ccc(O)cc1)O2 [6-PN, 6-prenylnaringenin] |  | 6.2 µM |  |  |  |  |  |  |  |  |  |  |  |  | 
CC(C)=CCc1c(O)cc(O)c2c1O[C@H](c1ccc(O)cc1)CC2=O [8-PN, 8-prenylnaringenin] |  |  | 1.95 ± 0.12 µM | 3.96 ± 0.17 µM | uncompetitive | not affecting | 0.99 ± 0.04 µM | 0.52 ± 0.05 µM | 0.71 ± 0.09 µM | 1.87 ± 0.09 µM | uncompetitive | 0.81 ± 0.03 µM | 0.3 ± 0.03 µM | non-competitive | 7.6 times
COc1cc(O)c(CC=C(C)C)c(O)c1C(=O)/C=C/c1ccc(O)cc1 [XN, xanthohumol] |  |  | 20.1 ± 3.73 µM | 41.4 ± 6.86 µM | uncompetitive | not affecting | 6.56 ± 0.69 µM | 4.56 ± 0.98 µM | 15.1 ± 1.65 µM | 29.2 ± 2.3 µM | uncompetitive | 9.11 ± 1.02 µM | 5.29 ± 0.95 µM | non-competitive | 
COc1cc(O)c(CC=C(C)C)c2c1C(=O)CC(c1ccc(O)cc1)O2 (stereo not shown) [IX, isoxanthohumol] |  |  | 2.25 ± 0.24 µM | 4.24 ± 0.23 µM | uncompetitive | not affecting | 1.09 ± 0.06 µM | 0.52 ± 0.05 µM | 0.34 ± 0.06 µM | 0.88 ± 0.05 µM | uncompetitive | 0.57 ± 0.02 µM | 0.17 ± 0.02 µM | uncompetitive | 
